Legend:
[1] = target: T1, hα7-wt nAChR-expressing GH4Cl cells (Homo sapiens, UniProt P36544); experiment: Patch-clamp current recording (whole-cell), potentiation of choline 1 mM response, PAM type; type: cell-based; parameters: key to Pam type: Type 0 compounds minimally enhance the effect size of the current elicited by 1 mM choline.; Type 1 compounds enhance the effect size of the current elicited by 1 mM choline but minimally alter the kinetics of the receptor.; Type 2 compounds enhance the effect size of the current elicited by 1 mM choline while reducing the rate and/or the extent of desensitization.; Type 3 compounds enhance the effect size of the current elicited by 1 mM choline. When tested at higher concentrations up to 10 μM they completely inhibit desensitization, in particular a 1 mM choline application of 250 milliseconds.; Type 4 compounds allow for an initial desensitization of the receptor followed by a re-opening of the receptor during agonist application; conditions: for EC50: according to Ex. D.2, "<5" = no top plateau reached at maximal concentration, read-out: Potency (pEC50) (converted); for Pam type: patch-clamp current recording, 1 mM choline
T1 construct: expressed in transfected cells
In short: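 Whole-cell voltage clamp at −70 mV of GH4Cl cells expressing human α7 nAChR, with PAM and 1 mM choline co-applied by rapid-switching (<100 ms) microfluidics. External solution HEPES-buffered, 1 mM Ca, pH 7.3; CsCl-based internal. Compounds classified into PAM types by effect on current amplitude and desensitization kinetics.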

T1 sequence (P36544 23-502): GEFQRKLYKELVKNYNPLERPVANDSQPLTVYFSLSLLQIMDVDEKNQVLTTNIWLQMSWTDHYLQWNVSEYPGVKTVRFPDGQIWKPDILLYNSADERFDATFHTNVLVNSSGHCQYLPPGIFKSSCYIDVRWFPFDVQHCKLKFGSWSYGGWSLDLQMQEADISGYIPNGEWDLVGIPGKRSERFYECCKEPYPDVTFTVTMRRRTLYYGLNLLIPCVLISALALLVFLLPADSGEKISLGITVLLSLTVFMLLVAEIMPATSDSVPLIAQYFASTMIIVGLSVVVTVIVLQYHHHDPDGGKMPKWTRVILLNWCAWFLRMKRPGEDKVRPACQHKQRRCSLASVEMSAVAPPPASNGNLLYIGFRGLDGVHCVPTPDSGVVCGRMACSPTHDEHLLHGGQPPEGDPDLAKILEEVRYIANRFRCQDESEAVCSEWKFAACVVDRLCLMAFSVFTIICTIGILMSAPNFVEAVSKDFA

melting point [°C]	Compound	EC50 [1] [µM]	Pam type [1]
227.2	Cc1cc(-n2nc(Nc3ccc4c(c3)OC(F)(F)O4)nc2CC(=O)NCC2CC2)c(C)cn1 [E161]	1.32	2
247.5	Cc1cc(-n2nc(Nc3cccc(OC(F)(F)F)c3)nc2CC(=O)NCC2CC2)cc(C)n1 [E165]	0.209	1
296.8	CCNC(=O)Cc1nc(Nc2ccc(F)c(F)c2)nn1-c1cc(C)nc(C)c1 [E167, 3-[(3,4-difluorophenyl)amino]-1-(2,6-dimethyl-4-pyridinyl)-N-ethyl-1H-1,2,4-triazole-5-acetamide]	0.617	2
279.3	Cc1cc(-n2nc(Nc3ccc(F)c(F)c3)nc2CC(=O)NC2CC2)cc(C)n1 [E168]	0.513	2
270	Cc1cc(-n2nc(Nc3cccc(C(F)(F)F)c3)nc2CC(=O)NC2CC2)cc(C)n1 [E171]	0.501	4
127.9	CC[C@H](O)Cc1nc(Nc2cccc(Cl)c2F)nn1-c1ccnc(C)c1 [E173]	0.407	2
276.3	Cc1cc(-n2nc(Nc3cccc(C(F)(F)F)c3)nc2CC(=O)NC2CCC2)cc(C)n1 [E174]	0.162	2
283.6	CCNC(=O)Cc1nc(Nc2cccc(C(F)(F)F)c2)nn1-c1cc(C)nc(C)c1 [E175]	0.55	4
260.9	Cc1cc(-n2nc(Nc3cccc(C(F)(F)F)c3)nc2CC(=O)NCC2CC2)cc(C)n1 [E177]	0.219	2
291.3	Cc1cc(-n2nc(Nc3ccc4c(c3)OC(F)(F)O4)nc2CC(=O)NC2CCC2)cc(C)n1 [E179]	0.0977	1
292.6	Cc1cc(-n2nc(Nc3ccc4c(c3)OC(F)(F)O4)nc2CC(=O)NC2CC2)cc(C)n1 [E180, N-cyclopropyl-3-[(2,2-difluoro-1,3-benzodioxol-5-yl)amino]-1-(2,6-dimethyl-4-pyridinyl)-1H-1,2,4-triazole-5-acetamide]	0.302	2
277.5	CCNC(=O)Cc1nc(Nc2cccc(OC(F)(F)F)c2)nn1-c1cc(C)nc(C)c1 [E181]	0.513	2
282.2	Cc1cc(-n2nc(Nc3cccc(OC(F)(F)F)c3)nc2CC(=O)NC2CC2)cc(C)n1 [E182, N-cyclopropyl-1-(2,6-dimethyl-4-pyridinyl)-3-[[3-(trifluoromethoxy)phenyl]amino]-1H-1,2,4-triazole-5-acetamide]	0.331	2
264.4	Cc1cc(-n2nc(Nc3cccc(OC(F)(F)F)c3)nc2CC(=O)NC2CCC2)cc(C)n1 [E184]	0.257	2
278.7	Cc1cc(-n2nc(Nc3ccc(F)c(F)c3)nc2CC(=O)NCC2CC2)cc(C)n1 [E185]	0.468	2
177.4	CC[C@H](O)Cc1nc(Nc2cc(F)c(F)c(F)c2)nn1-c1ccnc(C)c1 [E187, (alphaS)-alpha-ethyl-1-(2-methyl-4-pyridinyl)-3-[(3,4,5-trifluorophenyl)amino]-1H-1,2,4-triazole-5-ethanol]	0.224	2
176.6	CC[C@H](O)Cc1nc(Nc2cc(F)c(F)c(F)c2)nn1-c1cc(C)nc(C)c1 [E188, (alphaS)-1-(2,6-dimethyl-4-pyridinyl)-alpha-ethyl-3-[(3,4,5-trifluorophenyl)amino]-1H-1,2,4-triazole-5-ethanol]	0.224	2

melting point [°C]	Compound	EC50 [1] [µM]	Pam type [1]
138	Cc1cc(-n2nc(Nc3ccc(F)c(F)c3F)nc2C[C@H](C)O)cc(C)n1 [E189, (alphaS)-1-(2,6-dimethyl-4-pyridinyl)-alpha-methyl-3-[(2,3,4-trifluorophenyl)amino]-1H-1,2,4-triazole-5-ethanol]	0.631	2
177.7	Cc1cc(-n2nc(Nc3cc(F)c(F)cc3F)nc2C[C@H](C)O)cc(C)n1 [E194]	5.01	–
151.9	CC[C@@H](O)Cc1nc(Nc2cc(OC)cc(C(F)(F)F)c2)nn1-c1ccc(C)nc1 [E195]	3.63	–
110.4	CC[C@H](O)Cc1nc(Nc2cccc(Cl)c2)nn1-c1ccc(C)nc1 [E196]	0.912	2
225.1	Cc1cc(-n2nc(Nc3ccc(F)c(F)c3)nc2C[C@@H](C)O)cc(C)n1 [E197]	1.78	2
224.4	Cc1cc(-n2nc(Nc3ccc(F)c(C(F)(F)F)c3)nc2C[C@@H](C)O)cc(C)n1 [E199]	1.07	2
280.9	CCNC(=O)Cc1nc(Nc2ccc3c(c2)OC(F)(F)O3)nn1-c1cc(C)nc(C)c1 [E200, 3-[(2,2-difluoro-1,3-benzodioxol-5-yl)amino]-1-(2,6-dimethyl-4-pyridinyl)-N-ethyl-1H-1,2,4-triazole-5-acetamide]	0.407	2
270.3	Cc1cc(-n2nc(Nc3ccc4c(c3)OC(F)(F)O4)nc2CC(=O)NCC2CC2)cc(C)n1 [E201]	0.302	2
133.2	CC[C@H](O)Cc1nc(Nc2ccc(OC)cc2)nn1-c1ccnc(C)c1 [E202]	2.75	2
200.2	Cc1cc(-n2nc(Nc3cc(F)c(F)c(F)c3)nc2C[C@H](C)O)ccn1 [E207]	1.32	2
199.6	Cc1cc(-n2nc(Nc3cc(F)c(F)c(F)c3)nc2C[C@H](C)O)cc(C)n1 [E208]	0.741	2
241.5	CCNC(=O)Cc1nc(Nc2ccc(F)c(F)c2F)nn1-c1cc(C)nc(C)c1 [E210]	0.417	2
237.3	Cc1cc(-n2nc(Nc3ccc(F)c(F)c3F)nc2CC(=O)NC2CC2)cc(C)n1 [E211]	0.372	2
249.4	Cc1cc(-n2nc(Nc3ccc(F)c(F)c3F)nc2CC(=O)NC2CCC2)cc(C)n1 [E212]	0.251	2
184	Cc1cc(-n2nc(Nc3ccc(F)c(C(F)(F)F)c3)nc2CCC(=O)N(C)C)cc(C)n1 [E233]	~0.0295	–
244	CCNC(=O)C(C)c1nc(Nc2ccc3c(c2)OC(F)(F)O3)nn1-c1cc(C)nc(C)c1 (centres unmarked) [E275]	1.05	2
131.4	Cc1cc(-n2nc(Nc3ccc(F)c(F)c3F)nc2C[C@H](C)O)ccn1 [E277]	6.31	–
